Experimental findings from patent US10047076B2, “Halogen-substituted compounds” (BAYER CROPSCIENCE AKTIENGESELLSCHAFT, priority 2014, dated 2018) are described below.

Data set [1] deals with Spodoptera frugiperda. The data set is described as follows: Spodoptera frugiperda spray test. Format: in vivo. To be noted: caterpillars on maize leaf discs, after 7 days. The text has this:
(§1) Solvent: 78.0 parts by weight of acetone

The subject of data set [2] is Boophilus microplus. Nature of the data set: Boophilus microplus injection test. The data set is classed as in vivo. Particulars: 20 μg/animal, engorged adult female ticks, after 7 days. Here is the method: (§2) Solvent: dimethyl sulphoxide
1 μl of the active compound solution is injected into the abdomen of 5 engorged adult female cattle ticks (Boophilus microplus). The animals are transferred into dishes and kept in a climate-controlled room.
Efficacy is assessed after 7 days by laying of fertile eggs. Eggs which are not visibly fertile are stored in a climate-controlled cabinet until the larvae hatch after about 42 days. An efficacy of 100% means that none of the ticks has laid any fertile eggs; 0% means that all the eggs are fertile.

In data set [3] the test system is Phaedon cochleariae. Nature of the data set: Phaedon cochleariae spray test. Particulars: larvae on Chinese cabbage leaf discs, after 7 days.
Data set [4] deals with Ctenocephalides felis. Nature of the data set: Ctenocephalides felis oral test. The data set is classed as in vivo. Particulars: 100 ppm in citrated cattle blood, after 2 days.
Source text: as §2
Dilution with citrated cattle blood gives the desired concentration.
About 20 unfed adult cat fleas (Ctenocephalides felis) are placed into a chamber which is closed at the top and bottom with gauze. A metal cylinder whose bottom end is closed with parafilm is placed onto the chamber. The cylinder contains the blood/active compound preparation, which can be imbibed by the fleas through the parafilm membrane.

Data set [5] has as its system Musca domestica. Nature of the data set: Musca domestica test. Format: in vivo. To be noted: 100 ppm, adult houseflies, after 2 days.
Source text: as §2
Vessels containing a sponge treated with sugar solution and the active compound preparation of the desired concentration are populated with 10 adult houseflies (Musca domestica).

For data set [6], the system named is Lucilia cuprina. Nature of the data set: Lucilia cuprina test. The data set is classed as in vivo. To be noted: 100 ppm, L1 larvae, after 2 days. Here is the method: as §2
About 20 L1 larvae of the Australian sheep blowfly (Lucilia cuprina) are transferred into a test vessel containing minced horsemeat and the active compound preparation of the desired concentration.
After 2 days, the kill in % is determined.

A short description of data set [7]: log P determination by HPLC on reversed-phase column (C18), EEC Directive 79/831 Annex V.A8, acidic (formic acid). Format: physicochemical. Particulars: HPLC method a), acetonitrile/water with formic acid. How it is done:
^1 The stated mass is the peak of the isotope pattern of the [M+H]^+ ion of the highest intensity; if the [M-H]^- ion was detected, the stated mass is identified with ^2. ^2 The stated mass is the peak of the isotope pattern of the [M-H]^- ion of the highest intensity. ^a) Note regarding the determination of the log P values and mass detection: The determination of the given log P values was carried out in accordance with EEC Directive 79/831 Annex V.A8 by HPLC (High Performance Liquid Chromatography) on a reversed-phase column (C18). […] Mass detection is effected by means of an […] system. ^b) Note regarding the determination of the retention time and mass detection: The stated retention times were determined on a reversed-phase column (C18) Shimadzu LCMS 2020; 50*3.0 Shimadzu shim-pack XR-ODS 2.2 micron; mobile phase A: water (0.05% TFA); mobile phase B: acetonitrile; linear gradient from 5% acetonitrile to 95% acetonitrile in 6.00 min, then 95% acetonitrile for a further 1.1 min; oven temperature 40° C.; flow rate: 1.0 ml/min. ^c) Note regarding the determination of the retention time and mass detection: Instrument: Waters ACQUITY SQD UPLC system; column. Waters Acquity UPLC HSS T3 1.8μ 50×1 mm; mobile phase A: 1 l of water+0.25 ml of 99% strength formic acid, mobile phase B: 1 l of acetonitrile+0.25 ml of 99% strength formic acid; gradient: 0.0 min 90% A→1.2 min 5% A→2.0 min 5% A oven: 50° C.; flow rate: 0.40 ml/min; UV detection: 208-400 nm. ^d) Note regarding the determination of the retention time and mass detection: […] The determination of the given log P values was carried out in accordance with EEC Directive 79/831 Annex V.A8 by HPLC (High Performance Liquid Chromatography) on a reversed-phase column (C18). […] Mass detection is effected by means of an […] system.

Data set [8] deals with Tetranychus urticae. Nature of the data set: Tetranychus urticae spray test, OP-resistant (bean leaf discs). Format: in vivo. To be noted: 500 g/ha, after 6 days. Here is the method: as §1
After 6 days, the efficacy in % is determined.

As a reminder, the logP is a log measure of how a compound divides between an organic and an aqueous phase. The low end stands for lower lipophilicity, the high end for higher lipophilicity. As a reminder, the chromatographic logP is a lipophilicity value derived from retention on a column. A lower chromatographic logP goes with lower lipophilicity.

`Cn1nc(C(F)(F)C(F)(F)F)c(C(F)(F)F)c1-c1ccc(-c2ccc(Cl)c(C(=O)NC3(C#N)CC3)c2)o1` [Iaa-1]: the efficacy in data set [1] (100 g/ha) and in data set [3] (100 g/ha) was 100% throughout. Besides, the “efficacy (laying of fertile eggs)” value in data set [2] is reported as 100%. Also, the “efficacy (kill in %)” value in data set [4], in data set [5] and in data set [6] was 100% each time. In data set [7], this molecule gave a logP of 4.08.
Take `Cn1nc(C(F)(F)C(F)(F)F)c(C(F)(F)F)c1-c1nc(-c2ccc(Cl)c(C(=O)NC3CC3)c2)no1` [Ibf-3]: the efficacy in data set [1] (500 g/ha) and in data set [3] (500 g/ha) was 100% each time. Further, the “efficacy (laying of fertile eggs)” value in data set [2] was 100%. Further, the “efficacy (kill in %)” value is given as 100% in data set [4], 80% in data set [5] and 100% in data set [6]. Further, the logP in data set [7] is listed as 4.26.
In the case of `CCn1nc(-c2ccc(Cl)c(C(=O)NC3CC3)c2)nc1-c1c(C(F)(F)F)c(C(F)(F)C(F)(F)F)nn1C` [Ibg-5], the efficacy in data set [3] (500 g/ha) stood at 100%; in data set [8], 90%. In data set [7], this molecule had a logP of 4.09.
Take `CCn1nc(-c2c(C(F)(F)F)c(C(F)(F)C(F)(F)F)nn2C)nc1-c1ccc(Cl)c(C(=O)NC2CC2)c1` [Ibh-4]: in data set [2], the “efficacy (laying of fertile eggs)” value is 100%. In addition, the efficacy in data set [3] (500 g/ha) and in data set [8] was 100% throughout. For the same molecule, the “efficacy (kill in %)” value amounted to 90% in data set [4], 90% in data set [5] and 100% in data set [6]. The same molecule came in with a lipophilicity (logP) in data set [7] of 3.99.
As for `Cn1nc(C(F)(F)C(F)(F)F)c(C(F)(F)F)c1-c1cc(-c2ccc(Cl)c(C(=O)NC3(C(F)(F)F)CC3)c2)no1` [Iap-5], in data set [2], the “efficacy (laying of fertile eggs)” value was 100%. The efficacy in data set [3] (100 g/ha) worked out at 100%. Moreover, the “efficacy (kill in %)” value in data set [4], in data set [5] and in data set [6] was 100% throughout. In data set [7], this molecule showed a log partition coefficient (logP) of 4.55.
Consider `Cn1nc(C(F)(F)C(F)(F)F)c(C(F)(F)F)c1-c1noc(-c2ccc(Cl)c(C(=O)NC3CC3)c2)n1` [Ibe-1, 2-chloro-N-cyclopropyl-5-{3-[1-methyl-3-(pentafluoroethyl)-4-(trifluoromethyl)-1H-pyrazol-5-yl]-1,2,4-oxadiazol-5-yl}benzamide], for which the efficacy in data set [1] (500 g/ha) and in data set [3] (500 g/ha) was 100% each time. Moreover, in data set [7], the chromatographic logP worked out at 4.16.
On to `Cn1nc(C(F)(F)C(F)(F)F)c(C(F)(F)F)c1-c1noc(-c2ccc(Cl)c(C(=O)NC3(C#N)CC3)c2)n1` [Ibe-4], for which the efficacy in data set [1] (500 g/ha) amounted to 100%; in data set [3] (500 g/ha) it was 100%; in data set [8] it was 90%. Besides, the “efficacy (laying of fertile eggs)” value in data set [2] came to 100%. Also, the “efficacy (kill in %)” value in data set [4], in data set [5] and in data set [6] was 100% in each case. Moreover, the logP in data set [7] is listed as 4.01.
On to `Cn1nc(-c2c(C(F)(F)F)c(C(F)(F)C(F)(F)F)nn2C)nc1-c1ccc(Cl)c(C(=O)NCC(F)(F)F)c1` [Ibh-3], for which the efficacy in data set [1] (500 g/ha) was determined as 100%; in data set [3] (500 g/ha), 100%; in data set [8] it was 90%. In data set [7], the lipophilicity (logP) worked out at 3.99.
